According to ChEMBL document CHEMBL1201862, “PubChem BioAssay data set” (2004):
The source made the active and inactive calls.

Columns and labels:
[1] = ARNT/TACC3 interaction disruptors, potency, confirmation, biochemical, AlphaScreen, cherry-picked samples (AID 651703); type: functional, Homo sapiens;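 note: His-tagged ARNT PAS-B domain paired with GST-TACC3 E629A dimer coactivator fragment; potency of inhibitors that break up the complex and lower AlphaScreen signal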
[2] = cytotoxicity in NIH3T3 fibroblasts, dose response, cytotoxicity control for HSP40 inhibitor project, cell-based, CellTiter-Glo luminescence, cherry-pick, set 2 (AID 624265); type: functional
[3] = target: Nonstructural protein 1 (Influenza A virus, UniProt Q194T2); type: functional, Influenza A virus (A/California/07/2009(H1N1))
[4] = target: T1, Histone-lysine N-methyltransferase NSD2 (Homo sapiens, UniProt O96028); type: biochemical
T1 sequence (O96028 whole entry): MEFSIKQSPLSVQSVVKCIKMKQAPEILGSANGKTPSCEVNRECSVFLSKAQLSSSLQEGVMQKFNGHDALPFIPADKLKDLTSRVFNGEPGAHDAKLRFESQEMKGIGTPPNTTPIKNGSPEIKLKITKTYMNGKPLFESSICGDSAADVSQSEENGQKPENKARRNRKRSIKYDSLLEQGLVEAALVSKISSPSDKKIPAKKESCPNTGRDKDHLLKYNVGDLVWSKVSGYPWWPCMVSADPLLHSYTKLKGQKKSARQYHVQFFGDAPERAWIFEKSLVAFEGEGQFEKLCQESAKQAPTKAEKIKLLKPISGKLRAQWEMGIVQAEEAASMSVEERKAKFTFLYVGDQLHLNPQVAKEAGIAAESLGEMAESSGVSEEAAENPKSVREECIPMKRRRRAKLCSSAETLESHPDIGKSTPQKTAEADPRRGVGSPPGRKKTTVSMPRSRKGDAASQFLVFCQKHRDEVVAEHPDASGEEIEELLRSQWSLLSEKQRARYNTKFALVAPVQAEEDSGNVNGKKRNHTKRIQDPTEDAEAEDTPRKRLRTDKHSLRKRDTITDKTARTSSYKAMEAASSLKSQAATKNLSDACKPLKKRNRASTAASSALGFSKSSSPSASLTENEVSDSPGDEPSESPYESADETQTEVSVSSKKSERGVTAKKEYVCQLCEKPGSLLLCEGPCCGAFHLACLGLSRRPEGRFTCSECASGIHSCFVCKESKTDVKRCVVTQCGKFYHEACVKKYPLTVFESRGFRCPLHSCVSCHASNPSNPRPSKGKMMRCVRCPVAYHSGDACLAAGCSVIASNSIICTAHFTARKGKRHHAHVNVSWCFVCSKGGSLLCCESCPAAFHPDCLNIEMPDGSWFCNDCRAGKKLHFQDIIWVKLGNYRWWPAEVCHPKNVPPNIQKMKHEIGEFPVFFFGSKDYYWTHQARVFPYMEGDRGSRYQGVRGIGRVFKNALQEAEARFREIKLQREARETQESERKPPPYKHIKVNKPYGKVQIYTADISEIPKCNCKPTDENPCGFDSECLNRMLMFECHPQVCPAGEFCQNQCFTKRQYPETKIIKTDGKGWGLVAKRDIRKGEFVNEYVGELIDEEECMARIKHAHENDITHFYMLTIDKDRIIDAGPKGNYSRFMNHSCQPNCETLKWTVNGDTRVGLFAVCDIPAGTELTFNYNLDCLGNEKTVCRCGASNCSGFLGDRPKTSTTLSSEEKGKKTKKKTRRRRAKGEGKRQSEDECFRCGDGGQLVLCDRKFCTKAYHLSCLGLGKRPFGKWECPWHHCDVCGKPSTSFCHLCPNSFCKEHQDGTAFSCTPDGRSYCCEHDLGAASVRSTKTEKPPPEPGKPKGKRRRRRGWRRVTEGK

[5] = StAR promoter reporter inhibition counter-screen, dose response, counter-screen for LRH-1 inverse agonist project, cell-based, luminescence, luciferase reporter (AID 651969); type: functional
[6] = target: Steroidogenic factor 1 (Homo sapiens, UniProt Q13285); assay: Counterscreen for inverse agonists of the liver receptor homolog-1 (LRH-1; NR5A2): Luminescence-based cell-based high throughput dose response assay to identify inverse agonists of the Steroidogenic Factor 1 Nuclear Receptor (SF1; NR5A1).; type: functional
[7] = target: Nuclear receptor subfamily 5 group A member 2 (Homo sapiens, UniProt O00482); type: functional, cell-based;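 note: HEK293T cells transfected with LRH-1 and a StAR promoter luciferase reporter; potency for inhibitors that lower LRH-1 driven reporter light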
[8] = target: T2, DNA dC->dU-editing enzyme APOBEC-3A (Homo sapiens, UniProt P31941); assay: SAR analysis of small molecule inhibitors of APOBEC3A DNA Deaminase via a fluorescence-based single-stranded DNA deaminase assay - Set 2.; type: functional; conditions: read-out: IC50_Mean
[9] = target: T3, DNA dC->dU-editing enzyme APOBEC-3G (Homo sapiens, UniProt Q9HC16); type: functional
[10] = target: T2, DNA dC->dU-editing enzyme APOBEC-3A; assay: Dose Response confirmation of small molecule APOBEC3A DNA Deaminase Inhibitors via a fluorescence-based single-stranded DNA deaminase assay. [Related pubchem assays (depositor defined):AID493011, AID493024]; type: functional
[11] = target: T3, DNA dC->dU-editing enzyme APOBEC-3G; assay: SAR analysis of small molecule inhibitors of APOBEC3G DNA Deaminase via a fluorescence-based single-stranded DNA deaminase assay - Set 2.; type: functional; conditions: read-out: IC50_Mean
[12] = target: T3, DNA dC->dU-editing enzyme APOBEC-3G; assay: APOBEC3G deaminase inhibitors, SAR follow-up, biochemical, fluorescence, single-stranded DNA substrate (AID 602136); type: functional; conditions: read-out: IC50_Mean
[13] = target: T2, DNA dC->dU-editing enzyme APOBEC-3A; assay: SAR analysis of small molecule inhibitors of APOBEC3A DNA Deaminase via a fluorescence-based single-stranded DNA deaminase assay.; type: functional; conditions: read-out: IC50_Mean
[14] = target: T4, ATP-dependent translocase ABCB1 (Homo sapiens, UniProt P08183); assay: ABCG2 efflux pump inhibitor potency, dose response, Ig-MXP3 cells, JC-1, flow cytometry, set 2 (AID 504566); type: functional; conditions: read-out: EC50_MICROM_;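 note: flow cytometry median green fluorescence of retained JC-1 dye; potency of efflux pump inhibition measured as rising substrate retention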
[15] = target: T4, ATP-dependent translocase ABCB1; assay: ABCB1 efflux inhibitor potency, dose response, Jurkat-DNR cells, JC-1, flow cytometry, set 2 (AID 504569); type: functional; conditions: read-out: EC50_MICROM_;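 note: potency of pump inhibitors that raise cellular JC-1 green fluorescence up to the nicardipine level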
[16] = target: Aryl hydrocarbon receptor (Homo sapiens, UniProt P35869); conditions: Potency;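 note: confirmatory quantitative high-throughput screen measuring activation of the AhR signaling pathway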
[17] = target: Mitochondrial peptide methionine sulfoxide reductase (Bos taurus, UniProt P54149); type: functional;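 note: absorbance read-out, biochemical high-throughput dose-response screen for MsrA inhibitors, confirmatory; recombinant bovine MsrA coupled to E. coli TrxB with NADPH and selenocystamine; potency is for inhibitors of MsrA activity on DMSO substrate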
[18] = target: ADP-ribosylation factor GTPase-activating protein 1 (Rattus norvegicus, UniProt Q62848); assay: Fluorescence polarization-based biochemical high throughput dose response screening assay to identify inhibitors of ADP-ribosylation factor GTPase activating protein 1 (ARFGAP1).; type: functional
[19] = target: T5, Protein disulfide-isomerase (Homo sapiens, UniProt P07237); assay: PDI inhibitors, insulin aggregation turbidity, dose response, biochemical, absorbance, cherry-picked samples (AID 602350); type: functional
[20] = target: T5, Protein disulfide-isomerase; assay: PDI inhibitors, insulin turbidity readout, dose response, biochemical, absorbance, cherry-picked samples, set 2 (AID 624274); type: functional
[21] = test system: H9c2; assay: cells; type: functional, cell-based; conditions: Rattus norvegicus, H9c2, Myocardium;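 note: confirmatory concentration-response retest of ultra-high-throughput screening hits for modulation of myocardial damage; cell death induced by hydrogen peroxide oxidative stress; compound pretreatment for 60 min then peroxide exposure for 2 h; potency is for protecting the cells against peroxide damage rather than for killing them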
[22] = AlphaScreen signal interference compounds, dose response, artefact control for ARNT-TACC3 interaction inhibitor project, biochemical, luminescence, cherry-pick (AID 651705); type: functional;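 note: AlphaScreen bead proximity signal that flags compounds interfering with the detection technology; potency reflects signal decrease which marks the compound as an assay artifact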
[23] = target: Melanocortin receptor 4 (Homo sapiens, UniProt P32245); type: functional, cell-based;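 note: Cell-based assay with luminescence read-out, confirmatory dose-response testing for agonist activity of biased ligands at MC4R; human U2OS cells with tagged receptor and beta-arrestin; potency of agonists that increase receptor coupling to beta-arrestin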
[24] = target: DNA repair and recombination protein RAD54-like (Homo sapiens, UniProt Q92698); assay: inhibitors of human RAD54 branch migration, confirmation, biochemical, fluorescence, cherry-picked samples, dose series (AID 651657); type: functional
[25] = MDA-MB-231 cell growth inhibition, dose response, cytotoxicity control for RAD54 inhibitor project, CellTiter-Glo luminescence, cherry-pick (AID 651692); type: functional, cell-based
[26] = target: Neurotensin receptor type 1 (Homo sapiens, UniProt P30989); type: functional;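 note: Image-based confirmatory dose-response assay measuring agonist activity at NTR1; NTR1-expressing U2OS osteosarcoma cells imaged for beta-arrestin GFP spot formation; agonist potency where compounds increase beta-arrestin recruitment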
[27] = target: T6, Small ubiquitin-related modifier 1 (Homo sapiens, UniProt P63165); assay: inhibitors of SUMO1 partner interactions, dose response, biochemical, FRET (AID 624383); type: functional; conditions: read-out: IC50_Mean
[28] = target: T7, Hexokinase HKDC1 (Homo sapiens, UniProt Q2TB90); assay: HKDC1 hexokinase inhibitors, dose response, biochemical, W721R variant (AID 504729); type: functional
T7 sequence (Q2TB90 whole entry): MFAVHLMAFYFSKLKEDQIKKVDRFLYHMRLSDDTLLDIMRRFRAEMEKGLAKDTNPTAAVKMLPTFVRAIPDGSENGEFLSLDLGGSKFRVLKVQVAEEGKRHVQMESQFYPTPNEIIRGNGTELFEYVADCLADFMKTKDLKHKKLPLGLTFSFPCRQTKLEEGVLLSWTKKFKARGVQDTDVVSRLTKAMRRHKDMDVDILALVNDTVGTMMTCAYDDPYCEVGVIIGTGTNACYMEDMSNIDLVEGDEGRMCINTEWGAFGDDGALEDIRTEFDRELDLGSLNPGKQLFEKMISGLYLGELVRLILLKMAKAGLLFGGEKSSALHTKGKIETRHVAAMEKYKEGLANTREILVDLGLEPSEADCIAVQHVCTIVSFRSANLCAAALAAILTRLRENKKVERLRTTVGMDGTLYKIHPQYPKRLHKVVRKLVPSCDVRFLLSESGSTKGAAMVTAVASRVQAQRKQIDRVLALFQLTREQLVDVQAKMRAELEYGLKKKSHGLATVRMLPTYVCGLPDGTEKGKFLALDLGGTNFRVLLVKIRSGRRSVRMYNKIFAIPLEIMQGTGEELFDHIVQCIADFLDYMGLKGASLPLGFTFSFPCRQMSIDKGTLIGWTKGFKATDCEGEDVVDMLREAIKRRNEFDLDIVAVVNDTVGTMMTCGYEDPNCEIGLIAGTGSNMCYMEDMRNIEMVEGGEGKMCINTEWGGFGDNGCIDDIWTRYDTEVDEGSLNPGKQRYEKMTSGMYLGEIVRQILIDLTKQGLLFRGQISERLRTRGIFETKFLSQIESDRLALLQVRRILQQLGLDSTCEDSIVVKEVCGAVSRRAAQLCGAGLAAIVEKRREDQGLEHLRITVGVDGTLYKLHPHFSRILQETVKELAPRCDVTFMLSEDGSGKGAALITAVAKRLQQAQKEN

[29] = target: DNA (cytosine-5)-methyltransferase 1 (Homo sapiens, UniProt P26358); assay: DNMT1 methyltransferase inhibitors, confirmation, biochemical, fluorescent molecular beacon (AID 602386); type: functional
[30] = target: T6, Small ubiquitin-related modifier 1; assay: inhibitors of SUMO1 peptide binding, dose response, biochemical, fluorescence polarization, uHTS hits (AID 624382); type: functional; conditions: read-out: IC50_Mean

T3 sequence (Q9HC16 whole entry): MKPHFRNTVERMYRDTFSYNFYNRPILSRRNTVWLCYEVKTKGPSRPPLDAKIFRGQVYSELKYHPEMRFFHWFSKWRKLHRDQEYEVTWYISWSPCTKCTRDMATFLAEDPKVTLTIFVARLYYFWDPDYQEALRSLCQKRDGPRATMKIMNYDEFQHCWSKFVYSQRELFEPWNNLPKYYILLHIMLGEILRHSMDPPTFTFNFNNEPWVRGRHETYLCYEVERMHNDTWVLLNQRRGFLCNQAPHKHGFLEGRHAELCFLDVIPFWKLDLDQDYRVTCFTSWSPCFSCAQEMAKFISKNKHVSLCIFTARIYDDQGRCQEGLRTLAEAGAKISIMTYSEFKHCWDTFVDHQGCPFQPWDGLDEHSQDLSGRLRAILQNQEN
T2 sequence (P31941 whole entry): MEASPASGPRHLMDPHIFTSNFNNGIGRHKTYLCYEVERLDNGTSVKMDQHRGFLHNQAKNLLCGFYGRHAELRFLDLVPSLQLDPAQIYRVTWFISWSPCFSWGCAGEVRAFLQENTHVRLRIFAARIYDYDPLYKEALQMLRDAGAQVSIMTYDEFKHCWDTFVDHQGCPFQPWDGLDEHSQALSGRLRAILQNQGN
T5 sequence (P07237 whole entry): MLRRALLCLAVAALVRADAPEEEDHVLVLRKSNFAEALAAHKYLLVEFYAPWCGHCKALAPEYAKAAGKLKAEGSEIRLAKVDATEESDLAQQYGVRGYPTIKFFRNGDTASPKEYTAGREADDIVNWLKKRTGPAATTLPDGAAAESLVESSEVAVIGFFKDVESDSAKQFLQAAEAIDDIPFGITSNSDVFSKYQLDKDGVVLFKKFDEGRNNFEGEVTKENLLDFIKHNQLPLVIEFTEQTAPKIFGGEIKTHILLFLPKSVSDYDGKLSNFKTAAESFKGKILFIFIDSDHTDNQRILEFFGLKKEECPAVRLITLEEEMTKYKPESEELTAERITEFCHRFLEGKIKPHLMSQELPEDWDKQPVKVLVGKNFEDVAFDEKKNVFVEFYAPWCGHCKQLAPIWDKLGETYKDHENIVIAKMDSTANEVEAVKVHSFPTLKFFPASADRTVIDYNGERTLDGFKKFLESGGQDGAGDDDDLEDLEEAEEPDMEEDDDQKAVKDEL
T6 sequence (P63165 whole entry): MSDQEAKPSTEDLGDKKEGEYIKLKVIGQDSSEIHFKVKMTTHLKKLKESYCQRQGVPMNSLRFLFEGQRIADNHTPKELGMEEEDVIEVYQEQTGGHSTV
T4 sequence (P08183 whole entry): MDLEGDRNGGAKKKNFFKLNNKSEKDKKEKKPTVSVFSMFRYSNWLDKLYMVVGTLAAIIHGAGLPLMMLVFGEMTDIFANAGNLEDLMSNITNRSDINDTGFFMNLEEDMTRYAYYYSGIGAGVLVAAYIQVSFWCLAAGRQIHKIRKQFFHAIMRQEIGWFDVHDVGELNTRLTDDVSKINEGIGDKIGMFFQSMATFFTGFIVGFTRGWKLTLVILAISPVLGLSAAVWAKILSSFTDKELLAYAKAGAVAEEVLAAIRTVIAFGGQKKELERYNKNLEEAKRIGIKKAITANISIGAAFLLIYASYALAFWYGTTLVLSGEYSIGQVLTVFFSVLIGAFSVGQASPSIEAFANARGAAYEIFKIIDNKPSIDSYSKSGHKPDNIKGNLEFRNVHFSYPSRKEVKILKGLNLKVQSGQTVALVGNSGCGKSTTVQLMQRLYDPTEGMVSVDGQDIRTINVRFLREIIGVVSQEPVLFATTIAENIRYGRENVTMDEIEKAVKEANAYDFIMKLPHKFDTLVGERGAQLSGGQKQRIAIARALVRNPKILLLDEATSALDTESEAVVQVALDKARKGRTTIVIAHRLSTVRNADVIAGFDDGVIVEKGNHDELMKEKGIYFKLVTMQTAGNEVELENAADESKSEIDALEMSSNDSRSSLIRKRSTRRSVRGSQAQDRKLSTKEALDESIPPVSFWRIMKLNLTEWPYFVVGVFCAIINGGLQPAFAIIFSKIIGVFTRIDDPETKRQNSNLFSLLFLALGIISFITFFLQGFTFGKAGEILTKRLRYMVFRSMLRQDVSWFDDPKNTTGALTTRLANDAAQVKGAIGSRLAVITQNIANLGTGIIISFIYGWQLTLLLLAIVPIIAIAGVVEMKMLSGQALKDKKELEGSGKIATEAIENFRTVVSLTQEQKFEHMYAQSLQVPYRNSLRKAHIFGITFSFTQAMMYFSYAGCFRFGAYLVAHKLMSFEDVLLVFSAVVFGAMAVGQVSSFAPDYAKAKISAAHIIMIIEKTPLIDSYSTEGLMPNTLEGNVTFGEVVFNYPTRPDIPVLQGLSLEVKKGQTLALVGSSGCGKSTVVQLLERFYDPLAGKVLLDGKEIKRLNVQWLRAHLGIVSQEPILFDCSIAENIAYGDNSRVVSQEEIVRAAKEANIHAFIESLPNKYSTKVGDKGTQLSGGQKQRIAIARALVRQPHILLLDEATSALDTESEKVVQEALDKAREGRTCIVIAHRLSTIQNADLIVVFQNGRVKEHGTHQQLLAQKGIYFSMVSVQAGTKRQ
Chain of Neurotensin receptor type 1 (P30989 whole entry): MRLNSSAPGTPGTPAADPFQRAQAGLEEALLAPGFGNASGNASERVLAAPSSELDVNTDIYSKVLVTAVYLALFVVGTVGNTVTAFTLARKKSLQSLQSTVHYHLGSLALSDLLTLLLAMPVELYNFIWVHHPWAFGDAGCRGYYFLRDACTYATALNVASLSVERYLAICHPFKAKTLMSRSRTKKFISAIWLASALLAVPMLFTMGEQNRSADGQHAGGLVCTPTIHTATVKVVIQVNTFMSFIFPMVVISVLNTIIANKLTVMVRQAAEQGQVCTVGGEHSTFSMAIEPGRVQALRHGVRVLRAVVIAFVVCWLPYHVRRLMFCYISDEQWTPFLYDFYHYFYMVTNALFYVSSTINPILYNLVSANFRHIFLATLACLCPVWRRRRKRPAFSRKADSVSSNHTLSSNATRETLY
Chain of Mitochondrial peptide methionine sulfoxide reductase (P54149 whole entry): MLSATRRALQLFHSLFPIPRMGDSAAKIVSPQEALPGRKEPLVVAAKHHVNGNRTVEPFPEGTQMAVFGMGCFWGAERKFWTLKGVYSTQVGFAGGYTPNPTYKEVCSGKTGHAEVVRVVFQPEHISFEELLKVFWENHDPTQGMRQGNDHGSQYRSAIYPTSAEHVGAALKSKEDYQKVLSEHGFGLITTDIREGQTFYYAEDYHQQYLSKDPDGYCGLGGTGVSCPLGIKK
Chain of ADP-ribosylation factor GTPase-activating protein 1 (Q62848 whole entry): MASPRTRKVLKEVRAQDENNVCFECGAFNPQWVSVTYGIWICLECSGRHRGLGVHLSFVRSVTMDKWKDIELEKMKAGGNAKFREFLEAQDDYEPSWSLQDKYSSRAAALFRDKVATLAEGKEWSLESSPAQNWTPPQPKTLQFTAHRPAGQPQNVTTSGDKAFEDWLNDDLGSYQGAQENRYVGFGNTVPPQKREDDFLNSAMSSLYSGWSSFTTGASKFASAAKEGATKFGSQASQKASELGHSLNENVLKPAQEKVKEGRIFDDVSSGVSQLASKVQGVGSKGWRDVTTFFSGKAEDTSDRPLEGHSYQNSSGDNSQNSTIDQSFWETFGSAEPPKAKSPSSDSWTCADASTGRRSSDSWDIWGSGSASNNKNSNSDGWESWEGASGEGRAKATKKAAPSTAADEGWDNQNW
Chain of DNA repair and recombination protein RAD54-like (Q92698 whole entry): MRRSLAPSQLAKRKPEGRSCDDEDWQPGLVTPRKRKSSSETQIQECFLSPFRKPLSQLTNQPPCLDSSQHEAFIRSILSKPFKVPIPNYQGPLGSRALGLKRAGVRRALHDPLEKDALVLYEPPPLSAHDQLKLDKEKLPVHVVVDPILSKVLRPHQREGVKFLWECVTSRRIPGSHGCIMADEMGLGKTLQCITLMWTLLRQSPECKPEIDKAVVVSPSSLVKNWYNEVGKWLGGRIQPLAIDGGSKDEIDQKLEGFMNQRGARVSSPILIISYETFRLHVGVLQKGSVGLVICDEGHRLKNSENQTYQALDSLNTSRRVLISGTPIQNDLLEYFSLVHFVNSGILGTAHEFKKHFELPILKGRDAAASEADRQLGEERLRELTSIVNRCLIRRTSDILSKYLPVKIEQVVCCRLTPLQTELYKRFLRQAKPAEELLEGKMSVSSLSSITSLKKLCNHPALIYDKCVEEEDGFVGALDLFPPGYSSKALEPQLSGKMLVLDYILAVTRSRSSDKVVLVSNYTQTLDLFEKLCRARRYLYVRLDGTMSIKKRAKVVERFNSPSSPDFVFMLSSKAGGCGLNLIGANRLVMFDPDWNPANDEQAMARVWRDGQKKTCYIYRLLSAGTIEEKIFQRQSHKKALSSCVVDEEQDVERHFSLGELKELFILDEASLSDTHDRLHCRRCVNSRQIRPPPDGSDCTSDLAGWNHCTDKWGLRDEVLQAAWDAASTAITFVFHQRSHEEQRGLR
Chain of Nonstructural protein 1 (Q194T2 whole entry): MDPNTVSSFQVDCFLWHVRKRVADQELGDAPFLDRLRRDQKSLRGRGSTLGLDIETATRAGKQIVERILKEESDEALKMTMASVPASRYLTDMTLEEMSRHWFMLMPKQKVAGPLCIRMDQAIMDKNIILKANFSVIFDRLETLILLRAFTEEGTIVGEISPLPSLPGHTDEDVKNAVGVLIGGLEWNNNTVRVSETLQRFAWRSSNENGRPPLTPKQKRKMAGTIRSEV
Chain of Melanocortin receptor 4 (P32245 whole entry): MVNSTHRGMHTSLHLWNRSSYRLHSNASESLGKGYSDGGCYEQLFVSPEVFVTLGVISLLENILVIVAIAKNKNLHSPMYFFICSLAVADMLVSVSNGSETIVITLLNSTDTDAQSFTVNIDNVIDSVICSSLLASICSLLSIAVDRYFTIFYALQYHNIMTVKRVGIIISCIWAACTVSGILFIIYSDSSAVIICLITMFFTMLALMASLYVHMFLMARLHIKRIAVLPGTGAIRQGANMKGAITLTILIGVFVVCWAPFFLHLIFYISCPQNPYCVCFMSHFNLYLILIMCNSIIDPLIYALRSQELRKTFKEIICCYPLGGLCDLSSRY

N=C(NNS(=O)(=O)c1cc(C(F)(F)F)cc(C(F)(F)F)c1)c1ccccn1
AC50 [1]: 104 µM (active)

O=C1c2cccc(Cl)c2C(=O)c2c1cccc2N1CCCC1
AbsAC35_uM [2]: 61.52 µM
IC50 [3]: 8.7 µM (active)
AC50 [4]: 2.51 µM (active)

CCOc1ccc(NC(=O)CN2CCN(CC(=O)Nc3ccc(OC)cc3)CC2)cc1
IC50 [5]: 35.9 µM (inactive)
IC50 [6]: 3.07 µM (active)
IC50 [7]: 18.1 µM (inactive)

Cc1ccc[n+](CC(=O)Nc2cc(C(F)(F)F)ccc2N2CCOCC2)c1
IC50 [8]: 26.6 µM (inactive)
IC50 [9]: 7.42 µM (active)
IC50 [10]: 2.88 µM (active)
IC50 [11]: 0.601 µM (active)
IC50 [12]: 9.17 µM (active)
IC50 [13]: 20.3 µM (inactive)

COc1ccc(-c2cc3nc(-c4ccccc4)cc(N4CCN(C(=O)c5ccsc5)CC4)n3n2)cc1
EC50 [14]: 0.77 µM (active)
EC50 [15]: 1.02 µM (active)

O=C(O)c1cc2ccccc2cc1O
AC50 [16]: 50.1 µM (inconclusive)

CCOC(=O)CC(C)(C)/C(C)=N/Nc1ccc([N+](=O)[O-])cc1[N+](=O)[O-]
IC50 [17]: 155 µM (inactive)

COc1ccc(-n2c(SCC(N)=O)nc3sc4c(c3c2=O)CCN(C)C4)cc1
IC50 [18]: 111 µM (inactive)

COc1cccc(/C=N/NC(=O)CNC(=O)c2ccc3c(c2)OCCO3)c1O
AC50 [19]: < 0.009 µM (active)
AC50 [20]: 0.009 µM (active)

Brc1ccc(-c2nn3c(-c4ccccn4)nnc3s2)o1
IC50 [21]: 14.8 µM (active)
AC50 [22]: 104 µM (active)

COc1ccccc1-c1cc(NC=O)c2ncc(-c3cccc(C(F)(F)F)c3)n2c1
EC50 [23]: > 89.2 µM (inactive)

CCOC(=O)c1c(NC(C)=O)sc2c(OCC(O)CN(CC)CC)c(Br)ccc12 (stereo not given)
AC50 [24]: 8.3 µM (active)
AC50 [25]: 24.6 µM (active)
EC50 [26]: 22.6 µM (inactive)

O=C(/C=C/c1ccc(Br)cc1)NC(=S)Nc1ccc(S(=O)(=O)Nc2nccs2)cc1
IC50 [27]: 3.39 µM (active)
IC50 [28]: 17.3 µM (active)
IC50 [29]: 5.22 µM (active)
IC50 [30]: > 66.6 µM (inactive)
